In one series the target is T1, wild-type p300 HAT (Homo sapiens, UniProt Q09472, DEL1523-1554/M1652G).
T1 construct: linking the natural N- and C-termini (residues 1287 and 1666) of the HAT domain; made in house
T1 sequence (Q09472 with tags, fused parts or gaps DEL1523-1554/M1652G): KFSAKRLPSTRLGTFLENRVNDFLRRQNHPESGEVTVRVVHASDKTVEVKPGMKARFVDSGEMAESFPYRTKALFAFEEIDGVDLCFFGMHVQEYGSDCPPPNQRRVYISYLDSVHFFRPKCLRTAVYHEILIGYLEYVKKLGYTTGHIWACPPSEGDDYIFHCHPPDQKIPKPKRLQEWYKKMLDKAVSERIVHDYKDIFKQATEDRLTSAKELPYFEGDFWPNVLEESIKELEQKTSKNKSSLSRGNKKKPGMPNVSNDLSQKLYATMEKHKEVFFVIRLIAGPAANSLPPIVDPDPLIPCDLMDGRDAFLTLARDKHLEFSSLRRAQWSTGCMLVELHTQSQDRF
As to the kind of experiment: HAT assay, steady state kinetic parameters of H4 tail peptide analog substrates, wild-type p300 HAT. It counts as biochemical. The following applies: peptide as substrate of wild-type p300 HAT. On the procedure: (§1) HAT Assays. HAT activity was determined by either a rapid and nonradioactive HAT assay that measures the production of CoASH by its facile reaction with DTNB, or by a radioactive assay (Lau, et al. (2000) supra; Thompson, et al. (2000) supra). […] For the radioactive assay, the concentration of [^14C]acetyl-CoA was fixed at 20 μM when measuring the steady-state kinetic parameters for peptide substrates.
(§2) To test the influence of electrostatic interactions on substrate sequence selection, the steady state kinetic parameters for several synthetic H4 tail peptide analogs was determined (listed in Table 5). In H4-15, there are two other basic residues (Lys5 and Lys12) near the target Lys8. It has previously been shown that either one of the nearby Lys (or Arg replacements) is sufficient to permit efficient acetylation by full-length p300 (Thompson, et al. (2001) supra). Here, the effects of replacing Lys5 and Lys12 with Ala, the neutral residue hydrogen bonding citrulline, or Asp were compared for wild-type and mutant p300 HAT as indicated in Table 5. Analysis of the single lysine substrate, analogous to the Lys-CoA component, which contains both amino and carboxyl groups derivatized as amides (Table 5), was also conducted. Km of these substrates were generally too high to be measured (>1000 μM) under the experimental conditions, highlighting the important role of the nearby positively charged residues for substrate interaction. As shown Table 5, the 22-fold V/K difference between wild-type p300 HAT protein and the D1625R/D1628R mutant for H4-15 substrate dropped to 6-fold when using Ac-Lys-NH2 as substrate. […] Consistent with this idea, H4-12^K5A/K12A or H4-12^K5Cit/K12A which lack proximal basic residues but contain neutral hydrogen bonding residues show kinetic behavior similar to that of Ac-Lys-NH2 (Table 5).

In a further series the target is T2, D1625R/D1628R p300 HAT (Homo sapiens, UniProt Q09472, D1625R/D1628R/DEL1523-1554/M1652G).
T2 construct: linking the natural N- and C-termini (residues 1287 and 1666) of the HAT domain; made in house
T2 sequence (Q09472 with tags, fused parts or gaps DEL1523-1554/D1625R/D1628R/M1652G): T1 sequence (Q09472 with tags, fused parts or gaps DEL1523-1554/M1652G) with D307R, D310R
As to the kind of experiment: HAT assay, steady state kinetic parameters of H4 tail peptide analog substrates, D1625R/D1628R p300 HAT mutant. The series is classed as biochemical. The following applies: for V/K(M^−1s^−1) for D1625R/D1628R: peptide as substrate of D1625R/D1628R p300 HAT mutant; for V/K difference between wild-type p300 HAT protein and the D1625R/D1628R mutant: ratio wild-type versus mutant for the given substrate. How it is done:
as §1, §2

Series [1] has as its system p300/CBP HAT. Briefly: coupled spectrophotometric assay that measures CoASH production in real-time. It counts as biochemical, human. The following applies: inhibitor concentration not given. From the text: (§3) In accordance with the methods of the present invention, compounds were screened to identify modulators of p300/CBP HAT activity.
In series [2] the test system is p300/CBP HAT. As to the kind of experiment: direct radioactive assay measuring 14C-incorporation from acetyl-CoA into H4 tail peptide. It counts as biochemical, human. The following applies: inhibitor concentration not given. On the procedure: as §3, §1
A further series has as its system AANAT. As to the kind of experiment: specificity test against other acetyltransferases: AANAT. The series is classed as biochemical. An excerpt:
(§4) The three small molecule p300 HAT inhibitors (7, 17.2 and 17.3) identified using virtual library screening provided new leads for further development. […] From the docking model of 7 to p300 HAT (FIG. 11), important hydrogen bonding roles are indicated for the side-chains of Arg1410, Thr1411, Trp1466 (all interacting with the inhibitor carboxylate) as well as the side-chain of Tyr1467 (hydrogen bonding to the nitro group). While Arg1410 and Tyr1467 are critical for CoA binding and/or catalysis, mutation of Trp1466 is well-tolerated. To explore the specificity of the small molecule HAT inhibitors, these compounds are tested against other acetyltransferases (PCAF, AANAT, RTT109, EsaI), which assists in the prioritization of candidates for pharmacologic applications.

Another series deals with PCAF (Homo sapiens, UniProt Q92831). Briefly: specificity test against other acetyltransferases: PCAF. The series is classed as biochemical.
Excerpt: as §4

The target of the next series is p300/CBP (Homo sapiens, UniProt Q09472). The following applies: Lau, et al. (2000); cited from earlier work.

Changes are numbered by the printed parent chain. Non-standard residues stand in square brackets, D forms with d. No end group written: not given here. Cit = NC(=O)NCCC[C@H](N)C(=O)O

Usually melting point stands for the temperature of the solid-liquid transition.

Sequence of PCAF (Q92831 whole entry, species assumed): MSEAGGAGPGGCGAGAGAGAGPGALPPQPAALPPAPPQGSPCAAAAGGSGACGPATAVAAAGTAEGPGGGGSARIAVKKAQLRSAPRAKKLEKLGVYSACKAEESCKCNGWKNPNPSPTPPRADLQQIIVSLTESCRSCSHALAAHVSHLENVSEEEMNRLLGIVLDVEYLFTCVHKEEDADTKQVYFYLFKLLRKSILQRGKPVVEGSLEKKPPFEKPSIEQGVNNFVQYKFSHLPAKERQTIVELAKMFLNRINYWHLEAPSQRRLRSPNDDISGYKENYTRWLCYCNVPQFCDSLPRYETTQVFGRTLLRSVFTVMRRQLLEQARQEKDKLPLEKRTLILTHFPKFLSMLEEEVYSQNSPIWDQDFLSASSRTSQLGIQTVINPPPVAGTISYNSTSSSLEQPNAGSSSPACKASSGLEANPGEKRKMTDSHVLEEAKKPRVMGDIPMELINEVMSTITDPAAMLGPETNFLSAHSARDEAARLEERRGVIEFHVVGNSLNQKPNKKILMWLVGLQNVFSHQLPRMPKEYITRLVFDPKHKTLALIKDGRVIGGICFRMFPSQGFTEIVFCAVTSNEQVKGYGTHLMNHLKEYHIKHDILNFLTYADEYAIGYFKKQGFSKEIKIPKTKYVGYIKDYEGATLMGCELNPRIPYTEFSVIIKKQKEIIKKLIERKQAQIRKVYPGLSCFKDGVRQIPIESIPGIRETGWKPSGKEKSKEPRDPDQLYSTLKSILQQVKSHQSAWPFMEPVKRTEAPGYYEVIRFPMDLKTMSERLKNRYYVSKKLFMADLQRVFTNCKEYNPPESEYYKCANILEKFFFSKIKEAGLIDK
Sequence of p300/CBP (Q09472 whole entry): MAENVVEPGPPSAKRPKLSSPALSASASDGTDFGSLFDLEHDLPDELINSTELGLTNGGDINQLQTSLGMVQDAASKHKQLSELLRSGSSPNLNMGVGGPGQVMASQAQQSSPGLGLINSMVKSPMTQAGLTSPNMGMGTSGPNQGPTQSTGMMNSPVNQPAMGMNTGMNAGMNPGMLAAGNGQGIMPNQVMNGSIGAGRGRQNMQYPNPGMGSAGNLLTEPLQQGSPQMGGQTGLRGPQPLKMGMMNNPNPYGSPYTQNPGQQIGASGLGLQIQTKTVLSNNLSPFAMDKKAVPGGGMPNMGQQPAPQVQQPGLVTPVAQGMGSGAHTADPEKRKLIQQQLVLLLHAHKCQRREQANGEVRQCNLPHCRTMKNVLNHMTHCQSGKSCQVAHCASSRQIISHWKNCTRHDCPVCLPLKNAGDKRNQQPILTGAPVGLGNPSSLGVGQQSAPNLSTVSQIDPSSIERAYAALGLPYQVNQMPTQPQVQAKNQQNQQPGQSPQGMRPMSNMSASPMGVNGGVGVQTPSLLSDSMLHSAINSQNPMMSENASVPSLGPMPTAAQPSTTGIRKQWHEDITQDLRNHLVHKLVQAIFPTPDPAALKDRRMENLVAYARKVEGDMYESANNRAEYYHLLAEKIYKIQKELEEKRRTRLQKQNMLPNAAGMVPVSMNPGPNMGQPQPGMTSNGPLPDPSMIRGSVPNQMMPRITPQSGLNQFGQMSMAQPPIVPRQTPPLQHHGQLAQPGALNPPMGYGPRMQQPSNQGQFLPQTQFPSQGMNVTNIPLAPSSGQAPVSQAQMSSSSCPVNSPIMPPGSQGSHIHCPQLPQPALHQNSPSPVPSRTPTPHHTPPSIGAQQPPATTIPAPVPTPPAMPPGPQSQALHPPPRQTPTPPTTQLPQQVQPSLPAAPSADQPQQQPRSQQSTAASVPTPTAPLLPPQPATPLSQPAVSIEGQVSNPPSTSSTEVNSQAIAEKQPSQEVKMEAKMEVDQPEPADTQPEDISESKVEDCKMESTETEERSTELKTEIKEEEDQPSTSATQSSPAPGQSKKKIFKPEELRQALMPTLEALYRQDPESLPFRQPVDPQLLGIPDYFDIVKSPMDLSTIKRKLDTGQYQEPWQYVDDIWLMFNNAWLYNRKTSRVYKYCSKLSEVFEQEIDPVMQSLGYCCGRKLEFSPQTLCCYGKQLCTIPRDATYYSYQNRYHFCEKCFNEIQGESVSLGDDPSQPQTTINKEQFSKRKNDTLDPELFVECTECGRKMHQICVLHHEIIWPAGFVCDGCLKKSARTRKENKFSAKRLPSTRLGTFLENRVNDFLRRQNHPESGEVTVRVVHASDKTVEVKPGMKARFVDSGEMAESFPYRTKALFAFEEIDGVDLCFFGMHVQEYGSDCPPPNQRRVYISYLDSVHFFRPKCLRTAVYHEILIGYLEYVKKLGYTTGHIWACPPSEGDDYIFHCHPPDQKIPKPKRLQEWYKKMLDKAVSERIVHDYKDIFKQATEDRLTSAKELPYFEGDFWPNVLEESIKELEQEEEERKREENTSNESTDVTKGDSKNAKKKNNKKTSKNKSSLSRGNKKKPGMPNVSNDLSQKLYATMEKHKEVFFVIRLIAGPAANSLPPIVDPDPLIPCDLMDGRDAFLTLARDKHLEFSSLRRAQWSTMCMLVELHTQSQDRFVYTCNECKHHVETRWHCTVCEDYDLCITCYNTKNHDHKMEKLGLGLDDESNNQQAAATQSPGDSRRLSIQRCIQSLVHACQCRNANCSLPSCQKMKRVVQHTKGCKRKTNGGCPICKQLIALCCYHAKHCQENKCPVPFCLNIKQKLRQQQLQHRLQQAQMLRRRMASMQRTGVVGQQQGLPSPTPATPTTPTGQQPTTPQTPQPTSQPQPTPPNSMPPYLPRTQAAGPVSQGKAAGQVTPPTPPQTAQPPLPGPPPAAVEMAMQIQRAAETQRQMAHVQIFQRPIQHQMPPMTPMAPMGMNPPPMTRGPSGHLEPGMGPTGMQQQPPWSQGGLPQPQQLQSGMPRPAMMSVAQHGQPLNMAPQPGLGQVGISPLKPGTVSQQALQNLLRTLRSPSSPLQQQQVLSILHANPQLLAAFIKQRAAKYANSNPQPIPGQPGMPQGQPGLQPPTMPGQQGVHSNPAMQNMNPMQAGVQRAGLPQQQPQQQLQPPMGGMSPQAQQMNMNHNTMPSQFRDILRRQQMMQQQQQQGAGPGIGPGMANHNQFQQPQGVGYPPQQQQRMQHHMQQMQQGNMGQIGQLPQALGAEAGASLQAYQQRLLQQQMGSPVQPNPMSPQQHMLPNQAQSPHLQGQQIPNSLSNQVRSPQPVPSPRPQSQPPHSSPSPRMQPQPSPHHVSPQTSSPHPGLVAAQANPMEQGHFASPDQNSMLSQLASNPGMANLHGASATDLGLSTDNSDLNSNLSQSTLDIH

On to `CC(=O)NC(CCCCN)C(N)=O` (stereo not drawn) [Ac-Lys-NH2, CH3CO—NH-Lys-CONH2], for which, at wild-type p300 HAT, the “V/K(M^−1s^−1) for W.T.” value came to 1843 ± 50 M⁻¹ s⁻¹. In addition, at D1625R/D1628R p300 HAT, the “V/K(M^−1s^−1) for D1625R/D1628R” value amounted to 326 ± 10 M⁻¹ s⁻¹; the “V/K difference between wild-type p300 HAT protein and the D1625R/D1628R mutant” value came out at 6 fold.

In the case of `CC1=NN(c2ccc(C(=O)O)cc2)C(=O)C1` [CM-26], in the series with p300/CBP HAT [1], the “% Inhibition Coupled” value was determined as 16.3%.

In turn, `CC1=NN(c2ccc(C(=O)O)cc2)C(=O)/C1=C\c1ccc(-c2ccccc2)o1` [Compound 6a] displayed a melting point of 306 to 309 °C. For the same compound, in the series with p300/CBP HAT [1], the “% Inhibition Coupled” value was found to be 33.7%. Further, the “% Inhibition Direct” value in the series with p300/CBP HAT [2] was found to be 71.5%.

Take `CC1=NN(c2ccc(C(=O)O)cc2)C(=O)/C1=C\c1ccc(-c2ccc([N+](=O)[O-])cc2)o1` [Compound 6b]: the melting point was 338 to 341 °C. Also, the “% Inhibition Coupled” value with p300/CBP HAT [1] was 35.6%. Also, in the series with p300/CBP HAT [2], the “% Inhibition Direct” value amounted to 33.8%.

Regarding `CCOC(=O)c1ccccc1-c1ccc(/C=C2\C(=O)N(c3ccc(C(=O)O)cc3)N=C2C)o1` [Compound 6c], the melting point was in the range of 249 to 251 °C. For the same compound, the “% Inhibition Coupled” value with p300/CBP HAT [1] is recorded as 38.1%. For the same compound, the “% Inhibition Direct” value in the series on p300/CBP HAT [2] came to 8.3%.

As to `CCOC(=O)c1ccc(N2N=C(C)/C(=C/c3ccc(-c4cc(C)c(C)cc4[N+](=O)[O-])o3)C2=O)cc1` [Compound 6d], the melting point fell in the range of 192 to 194 °C. Also, the “% Inhibition Coupled” value with p300/CBP HAT [1] is 0%.

The compound `CC1=NN(c2cccc(C(=O)O)c2)C(=O)/C1=C\c1ccc(-c2cc(C)c(C)cc2[N+](=O)[O-])o1` [Compound 6e] had a melting point of 260 to 262 °C. Further, the “% Inhibition Coupled” value with p300/CBP HAT [1] is recorded as 63.4%. In addition, the “% Inhibition Direct” value in the series on p300/CBP HAT [2] was 96.4%.

With `CC1=NN(c2ccc(S(=O)(=O)O)cc2)C(=O)/C1=C\c1ccc(-c2cc(C)c(C)cc2[N+](=O)[O-])o1` [Compound 6f], the melting point was in the range of 210 to 213 °C. Besides, in the series with p300/CBP HAT [1], the “% Inhibition Coupled” value was determined as 57.4%. Further, the “% Inhibition Direct” value in the series on p300/CBP HAT [2] is 97.2%.

As to `CC1=NN(c2ccc(C(N)=O)cc2)C(=O)/C1=C\c1ccc(-c2cc(C)c(C)cc2[N+](=O)[O-])o1` [Compound 6h], the melting point was in the range of 273 to 275 °C. The “% Inhibition Coupled” value with p300/CBP HAT [1] stood at 40.6%. In the series on p300/CBP HAT [2], the “% Inhibition Direct” value is listed as 94.7%.

With `CC1=NN(c2ccc(Cl)cc2)C(=O)/C1=C\c1ccc(-c2cc(C)c(C)cc2[N+](=O)[O-])o1` [Compound 6i], the melting point was 220 to 223 °C. The “% Inhibition Coupled” value in the series on p300/CBP HAT [1] amounted to 13.9%.

In the case of `CC1=NN(c2ccc(C(=O)O)cc2)C(=O)/C1=C\c1ccc(-c2cc(C)c(C)cc2[N+](=O)[O-])o1` [Compound 7], the “% Inhibition Coupled” value in the series with p300/CBP HAT [1] is reported as 85.9%. Further, in the series with AANAT, the “% inhibition of AANAT” value is listed as 4.8%. The “% inhibition of PCAF” value on PCAF turned out to be 0%.

Turning to `CC1=NN(CCCCC(=O)O)C(=O)/C1=C\c1ccc(-c2cc(C)c(C)cc2[N+](=O)[O-])o1` [Compound 9], in the series on p300/CBP HAT [1], the “% Inhibition Coupled” value is on record as 92.6%. Also, the “% Inhibition Direct” value in the series on p300/CBP HAT [2] turned out to be 55.8%.

As for `CC1=NN(c2ccc(C(=O)O)cc2)C(=O)/C1=C\c1ccc(-c2cc(C)ccc2[N+](=O)[O-])o1` [Compound 40174], the “% Inhibition Direct” value with p300/CBP HAT [2] turned out to be 79.5%.

Take `CC1=NN(c2ccc(C(=O)O)cc2)C(=O)/C1=C\c1ccc(-c2ccccc2F)o1` [Compound 6328730]: the “% Inhibition Coupled” value in the series on p300/CBP HAT [1] is 90.5%. Also, the “% Inhibition Direct” value with p300/CBP HAT [2] worked out at 67.9%.

Take `CC(=O)N[C@@H](CCCCNC(=O)CSCCNC(=O)CCNC(=O)[C@H](O)C(C)(C)COP(=O)(O)OP(=O)(O)OC[C@H]1O[C@@H](n2cnc3c(N)ncnc32)[C@H](O)[C@@H]1OP(=O)(O)O)C(N)=O` [Lys-CoA]: the “inhibition of p300/CBP” value on p300/CBP was “powerful and selective inhibitor”.

GRGDGGKGLGDGGAK [H4-15(K5D/K12D)]: the “V/K(M^−1s^−1) for W.T.” value in the series with wild-type p300 HAT came out at 636 ± 0 M⁻¹ s⁻¹. For the same compound, in the series with D1625R/D1628R p300 HAT, the “V/K(M^−1s^−1) for D1625R/D1628R” value stood at 422 ± 20 M⁻¹ s⁻¹; the “V/K difference between wild-type p300 HAT protein and the D1625R/D1628R mutant” value is given as no more than 2 fold.

In the case of “GRGKGGKGLGKGGAK (Ac-GRGKGGKGLGKGGAK) [Compound H4-15]”, the “V/K(M^−1s^−1) for W.T.” value in the series with wild-type p300 HAT is 25000 ± 1643 M⁻¹ s⁻¹. Further, in the series with D1625R/D1628R p300 HAT, the “V/K(M^−1s^−1) for D1625R/D1628R” value came out at 1162 ± 60 M⁻¹ s⁻¹; the “V/K difference between wild-type p300 HAT protein and the D1625R/D1628R mutant” value turned out to be 22 fold.

With RGAGGKGLGAGA [H4-12(K5A/K12A)], the “V/K(M^−1s^−1) for W.T.” value in the series with wild-type p300 HAT worked out at 3824 ± 180 M⁻¹ s⁻¹. Besides, the “V/K(M^−1s^−1) for D1625R/D1628R” value with D1625R/D1628R p300 HAT was found to be 515 ± 15 M⁻¹ s⁻¹.

With “RGXGGKGLGAGA (RG[Cit]GGKGLGAGA) [H4-12(K5X/K12A)]”, the “V/K(M^−1s^−1) for W.T.” value with wild-type p300 HAT came out at 5247 ± 60 M⁻¹ s⁻¹. For the same compound, the “V/K(M^−1s^−1) for D1625R/D1628R” value with D1625R/D1628R p300 HAT is 738 ± 20 M⁻¹ s⁻¹.

These data come from patent publication US9138439B2, “Methods and compositions for modulating P300/CBP activity” (The Wistar Institute, priority 2007, dated 2015).
